Results taken from PMC4830539, “Chemical Inhibition of Histone Deacetylases 1 and 2 Induces Fetal Hemoglobin through Activation of GATA2” (PLoS ONE, 2016).

Assays:
[1] = set-up: method as in earlier work; conditions: rat; cited from earlier work
[2] = target: HDAC2 (Homo sapiens, UniProt Q92769); experiment: In vitro biochemical HDAC enzyme assay; set-up: purchased BPS Biosciences; conditions: 24 hours pre-incubation; mean, n = 4
Protocol: In vitro biochemical assays were performed as described previously. Specifically, drugs were dissolved and diluted in assay buffer (50 mM HEPES, pH 7.4, 100 mM KCl, 0.001% Tween-20, 0.05% BSA, and 20 μM Tris (2-carboxyethyl)phosphine) to 6-fold the final concentration. HDAC enzymes (BPS Biosciences) were diluted to 1.5-fold of the final concentration in assay buffer and pre-incubated with ACY-957 for 24 hours before the addition of the substrate. The amount of substrate (acetyl-lysine tripeptide substrate for HDAC1, HDAC2, HDAC3, and HDAC6 or trifluoroacetyl-lysine tripeptide for HDAC4, HDAC5, HDAC7, HDAC8, and HDAC9) used for each enzyme was equal to the Michaelis constant (Km), as determined by a titration curve. Substrate was diluted in assay buffer to 6-fold the final concentration with 0.3 μM sequencing grade trypsin (Sigma-Aldrich). The substrate/trypsin mix was added to the enzyme/compound mix and the plate was shaken for 5 seconds and then placed into a SpectraMax M5 microtiter plate reader (Molecular Devices). The enzymatic reaction was monitored over 30 minutes for release of […] after deacetylation of the lysine side chain in the peptide substrate, and the linear rate of the reaction was calculated.
ACY-957 was tested against each individual HDAC in an in vitro biochemical assay as previously described. […]

[3] = test system: HBG mRNA; experiment: HBG mRNA in burst forming unit erythroid (BFU-E) colonies; type: cell-based, human; conditions: 14 days
Protocol: Burst forming unit erythroid (BFU-E) assays were performed by ReachBio Research Labs (Seattle, WA). On the day of the experiment, normal human bone marrow mononuclear cells (Lonza) were thawed rapidly, diluted in 10 mL of IMDM containing 10% fetal bovine serum and washed by centrifugation. The supernatant was discarded and the cell pellet resuspended in a known volume of IMDM + 10% FBS. ACY-957 or vehicle was added to a semi-solid methylcellulose-based media formulation containing IL3 (10 ng/mL), CSF2 (10 ng/mL), KITLG (50 ng/mL), and EPO (3 U/mL) and plated in triplicate. BFU-E assays were initiated at 2.5 x 10^4 cells per culture. Following 14–16 days in culture, BFU-E colonies were isolated and RNA purified using the RNeasy Micro Kit (Qiagen).
Globin mRNA was detected using quantitative real time PCR (QPCR). Total RNA was isolated using RNeasy Micro Kit (Qiagen) with on-column DNase digestion, converted into cDNA using the High Capacity RNA-to-cDNA Kit (Life Technologies), diluted 5-fold with water, and 1 μL used as a template for QPCR. The percent of each β-like globin transcript was determined using the absolute standard curve method. Briefly, DNA corresponding to the full length transcript for each globin isoform was cloned into […] plasmid (GenScript, Piscataway NJ). Each plasmid was validated against each QPCR probe to ensure specificity. Plasmids were pooled at equal molar concentration and a dilution series spanning 8-logs was utilized as the standard curve. Throughout this work, ‘HBG mRNA (%)’ and ‘percent HBG mRNA’ refers to the abundance of HBG mRNA expressed relative to the sum of the abundances of all β-like globin transcripts, i.e. [HBG/(HBB+HBD+HBG+HBE)]*100. In cases where the transcript of interest was compared against the housekeeping gene ACTB, the comparative Ct ([…]) method was utilized. […]

Chain of HDAC2 (Q92769 whole entry): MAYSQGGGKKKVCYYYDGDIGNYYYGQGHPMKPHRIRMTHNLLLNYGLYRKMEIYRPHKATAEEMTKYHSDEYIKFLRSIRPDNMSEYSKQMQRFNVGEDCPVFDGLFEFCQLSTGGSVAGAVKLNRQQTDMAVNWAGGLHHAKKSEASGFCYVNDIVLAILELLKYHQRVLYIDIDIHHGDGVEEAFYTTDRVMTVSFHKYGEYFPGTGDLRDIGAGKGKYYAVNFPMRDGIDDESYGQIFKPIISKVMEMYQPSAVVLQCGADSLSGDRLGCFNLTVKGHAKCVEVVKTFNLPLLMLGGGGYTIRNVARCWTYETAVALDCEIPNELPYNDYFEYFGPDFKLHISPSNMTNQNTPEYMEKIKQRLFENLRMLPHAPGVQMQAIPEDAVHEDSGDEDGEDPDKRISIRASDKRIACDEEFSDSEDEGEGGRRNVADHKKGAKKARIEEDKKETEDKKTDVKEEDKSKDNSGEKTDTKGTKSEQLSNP

Nc1ccc(-c2cccs2)cc1NC(=O)c1ccc2nc(N3CCNCC3)ccc2c1 [ACY-957]
pharmacokinetic properties [1]: favorable | IC50 [2]: 18 nM | each β-like globin transcript relative to ACTB [3]: increased HBE and HBG mRNA and decreased HBD and HBB mRNA | percent HBG ([3]; 1 μM): 48% | percent HBG ([3]; 2 μM): 82%
